The record followed here is patent US20230265116A1, “DEGRADATION OF (EGFR) BY CONJUGATION OF EGFR INHIBITORS WITH E3 LIGASE LIGAND AND METHODS OF USE” (BEIGENE, LTD., priority 2020, published 2023).

Holding throughout (assay type): cell-based
The test system of assay [1] is EGFR Del19/T790M/C797S (H1975-clone #28). Nature of the assay: EGFR degradation HTRF assay, H1975-clone #28 DTC cells. In a few lines:
(§1)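 Engineered H1975 lines (lentiviral mutant EGFR, endogenous EGFR knocked out, single-clone verified); 16h compound, 37° C., 5% CO2, 0.2% DMSO; 8-point 5-fold series from 10 uM final. HTRF lysate read; % degradation vs DMSO, four-parameter fit → DC50, Dmax.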

In assay [2] the target is T1, EGFR L858R/T790M/C797S (BaF3-LTC cells) (Homo sapiens, UniProt P00533, C797S/L858R/T790M).
T1 construct: expressed in transfected cells; host or cells: BaF3
T1 sequence (P00533 25-1210 T790M/C797S/L858R): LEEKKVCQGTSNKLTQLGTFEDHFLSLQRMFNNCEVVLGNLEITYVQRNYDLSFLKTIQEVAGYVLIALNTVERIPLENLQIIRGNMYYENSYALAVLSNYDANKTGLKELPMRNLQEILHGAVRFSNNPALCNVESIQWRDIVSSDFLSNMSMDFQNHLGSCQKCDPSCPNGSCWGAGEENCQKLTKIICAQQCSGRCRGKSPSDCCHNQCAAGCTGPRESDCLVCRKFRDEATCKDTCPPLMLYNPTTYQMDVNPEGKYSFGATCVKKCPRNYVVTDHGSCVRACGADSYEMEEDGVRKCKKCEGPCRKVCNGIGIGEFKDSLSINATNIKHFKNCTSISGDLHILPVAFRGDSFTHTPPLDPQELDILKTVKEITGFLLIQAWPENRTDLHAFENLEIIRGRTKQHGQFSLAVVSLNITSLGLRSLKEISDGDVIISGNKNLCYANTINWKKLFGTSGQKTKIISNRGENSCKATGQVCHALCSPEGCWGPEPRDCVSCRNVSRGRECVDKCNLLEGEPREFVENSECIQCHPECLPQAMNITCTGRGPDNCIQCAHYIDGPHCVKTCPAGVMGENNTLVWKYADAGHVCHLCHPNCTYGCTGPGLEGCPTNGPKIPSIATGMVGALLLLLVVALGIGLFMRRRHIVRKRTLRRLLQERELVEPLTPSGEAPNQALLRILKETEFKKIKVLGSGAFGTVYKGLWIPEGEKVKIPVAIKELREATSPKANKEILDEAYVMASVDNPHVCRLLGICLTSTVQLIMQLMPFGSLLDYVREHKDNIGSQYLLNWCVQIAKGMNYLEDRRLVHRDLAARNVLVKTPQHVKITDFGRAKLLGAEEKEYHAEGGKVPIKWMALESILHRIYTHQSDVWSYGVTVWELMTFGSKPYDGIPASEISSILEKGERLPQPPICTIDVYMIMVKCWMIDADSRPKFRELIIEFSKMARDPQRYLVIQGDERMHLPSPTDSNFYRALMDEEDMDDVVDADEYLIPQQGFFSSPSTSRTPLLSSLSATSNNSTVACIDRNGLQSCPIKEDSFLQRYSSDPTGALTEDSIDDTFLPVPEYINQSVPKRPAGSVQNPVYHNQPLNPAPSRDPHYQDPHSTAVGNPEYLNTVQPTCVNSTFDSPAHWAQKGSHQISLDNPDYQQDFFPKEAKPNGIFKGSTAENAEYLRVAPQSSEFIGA
Nature of the assay: EGFR degradation HTRF assay, BaF3-LTC cells. In a few lines: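 EGFR remaining after a 16 h, 37 °C exposure (8 doses, 5-fold steps from 10 uM final, 0.2% DMSO) was quantified by HTRF antibodies in cell lysate. Percent inhibition relative to DMSO control was fitted by four-parameter logistic to give DC50; Dmax denotes maximal degradation.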

The target in assay [3] is T2, EGFR L858R/C797S (BaF3 LC cells) (Homo sapiens, UniProt P00533, C797S/L858R).
T2 construct: expressed in transfected cells; host or cells: BaF3
T2 sequence (P00533 25-1210 C797S/L858R): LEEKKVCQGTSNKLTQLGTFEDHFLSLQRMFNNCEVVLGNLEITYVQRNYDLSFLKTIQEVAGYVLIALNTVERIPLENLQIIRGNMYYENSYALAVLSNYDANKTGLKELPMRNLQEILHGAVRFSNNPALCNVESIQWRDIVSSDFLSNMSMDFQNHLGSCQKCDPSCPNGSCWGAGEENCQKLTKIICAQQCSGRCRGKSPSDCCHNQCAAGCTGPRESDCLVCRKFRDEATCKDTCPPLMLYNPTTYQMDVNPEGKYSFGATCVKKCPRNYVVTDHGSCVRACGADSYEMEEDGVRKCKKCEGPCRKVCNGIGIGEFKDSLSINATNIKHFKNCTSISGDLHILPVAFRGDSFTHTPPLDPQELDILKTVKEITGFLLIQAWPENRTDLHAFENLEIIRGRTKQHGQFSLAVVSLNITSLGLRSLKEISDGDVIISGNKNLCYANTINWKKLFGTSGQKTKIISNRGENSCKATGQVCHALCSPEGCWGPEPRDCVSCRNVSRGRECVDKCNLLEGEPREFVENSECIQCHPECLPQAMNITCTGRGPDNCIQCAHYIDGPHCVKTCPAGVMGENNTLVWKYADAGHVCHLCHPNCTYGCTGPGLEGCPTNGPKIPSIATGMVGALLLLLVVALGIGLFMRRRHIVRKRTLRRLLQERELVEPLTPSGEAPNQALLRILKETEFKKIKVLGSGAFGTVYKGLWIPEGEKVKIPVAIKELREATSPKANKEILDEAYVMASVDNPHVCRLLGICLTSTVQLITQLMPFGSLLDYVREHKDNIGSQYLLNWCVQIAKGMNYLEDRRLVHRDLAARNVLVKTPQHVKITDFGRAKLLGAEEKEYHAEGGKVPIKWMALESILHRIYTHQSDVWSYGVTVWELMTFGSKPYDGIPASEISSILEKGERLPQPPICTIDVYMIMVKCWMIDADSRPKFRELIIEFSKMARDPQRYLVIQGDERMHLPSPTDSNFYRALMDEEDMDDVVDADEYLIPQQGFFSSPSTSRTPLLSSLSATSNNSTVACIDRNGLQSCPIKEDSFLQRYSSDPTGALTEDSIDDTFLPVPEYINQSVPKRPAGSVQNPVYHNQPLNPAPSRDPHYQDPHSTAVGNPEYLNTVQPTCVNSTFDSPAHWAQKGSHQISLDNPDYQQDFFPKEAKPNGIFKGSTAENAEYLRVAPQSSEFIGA
Nature of the assay: EGFR degradation HTRF assay, BaF3 LC cells.

The subject of assay [4] is EGFR Del19/C797S (H1975-clone #23). Nature of the assay: EGFR degradation HTRF assay, H1975-clone #23 DC cells. The following applies: for H1975 #23 DC Dmax (%): maximum percentage of degradation. In a few lines: as §1
Setting [5] is: H1975 # 28 DTC cells; EGFR degradation, IC50 (DC50) from curve fit; read-out: DC50(nM) H1975 # 28 DTC.
[6] abbreviates: H1975 # 28 DTC cells; maximum percentage of inhibition (degradation).
[7] abbreviates: BaF3-LTC cells; EGFR degradation, IC50 (DC50) from curve fit; read-out: DC50(nM) BaF3-LTC.
The mark [8] stands for this setting: BaF3-LTC cells; maximum percentage of inhibition (degradation); read-out: Dmax (%) BaF3-LTC.
The mark [9] stands for this setting: BaF3 LC, 16h treatment, maximum percentage of degradation; read-out: BaF3 LC Dmax (%).
[10] abbreviates: BaF3 LC, 16h treatment; read-out: BaF3 LC DC50.
Where [11] appears, read: H1975 #23 DC, 16h treatment, read-out: H1975 #23 DC DC50.

The structures appear in SMILES notation. Like-named read-outs stand apart in the source and are kept apart here.

As for `CCOc1cc(N2CCC(N3CCN(CCc4cc(F)c(F)c5c4oc(=O)n5C4CCC(=O)NC4=O)CC3)CC2)c(CC)cc1Nc1ncc(Br)c(Nc2ccc3nc(CC)ccc3c2P(C)(C)=O)n1` (centres unmarked) [Example 474, 3-(7-(2-(4-(1-(4-((5-bromo-4-((5-(dimethylphosphoryl)-2-ethylquinolin-6-yl)amino)pyrimidin-2-yl)amino)-5-ethoxy-2-ethylphenyl)piperidin-4-yl)piperazin-1-yl)ethyl)-4,5-difluoro-2-oxobenzo[d]oxazol-3(2H)-yl)piperidine-2,6-dione], the DC50 in assay [1] (setting [5]) amounted to 1.15 nM; in assay [2] (setting [7]), 12 nM; in assay [3] (setting [10]) it was 30.4 nM; in assay [4] (setting [11]), 2.65 nM. The “Dmax (%) H1975 # 28 DTC” value in assay [1] (setting [6]) stood at 73.43%. Moreover, the results for the Dmax in assay [2] (setting [8]) and in assay [3] (setting [9]) were 79.2% and 81.1%, respectively. Besides, the “H1975 #23 DC Dmax (%)” value in assay [4] (16h treatment) is listed as 68.97%.

As to `CCOc1cc(N2CCC(N3CCN(CC4CN(c5cc(F)cc6c5oc(=O)n6C5CCC(=O)NC5=O)C4)CC3)CC2)c(CC)cc1Nc1ncc(Br)c(Nc2ccc3nc(CC)ccc3c2P(C)(C)=O)n1` (centres unmarked) [Example 479, 3-(7-(3-((4-(1-(4-((5-bromo-4-((5-(dimethylphosphoryl)-2-ethylquinolin-6-yl)amino)pyrimidin-2-yl)amino)-5-ethoxy-2-ethylphenyl)piperidin-4-yl)piperazin-1-yl)methyl)azetidin-1-yl)-5-fluoro-2-oxobenzo[d]oxazol-3(2H)-yl)piperidine-2,6-dione], the DC50 in assay [1] (setting [5]) came to 2.81 nM; in assay [2] (setting [7]) it was 7.8 nM; in assay [3] (setting [10]), 20.3 nM; in assay [4] (setting [11]) it was 4.91 nM. In addition, in assay [1] (setting [6]), the “Dmax (%) H1975 # 28 DTC” value is listed as 95.6%. Besides, the figures for the Dmax in assay [2] (setting [8]) and in assay [3] (setting [9]) were 88.8% and 82.7%, respectively. Moreover, the “H1975 #23 DC Dmax (%)” value in assay [4] (16h treatment) stood at 76.53%.

With `CCOc1cc(N2CCC(N3CCN(C(=O)C4CCN(c5cccc6c5oc(=O)n6C5CCC(=O)NC5=O)CC4)CC3)CC2)c(CC)cc1Nc1ncc(Br)c(Nc2ccc3nc(CC)ccc3c2P(C)(C)=O)n1` (centres unmarked) [Example 481, 3-(7-(4-(4-(1-(4-((5-bromo-4-((5-(dimethylphosphoryl)-2-ethylquinolin-6-yl)amino)pyrimidin-2-yl)amino)-5-ethoxy-2-ethylphenyl)piperidin-4-yl)piperazine-1-carbonyl)piperidin-1-yl)-2-oxobenzo[d]oxazol-3(2H)-yl)piperidine-2,6-dione], the “Dmax (%) H1975 # 28 DTC” value in assay [1] (setting [6]) worked out at 77.65%. Besides, the DC50 is 2.14 nM in assay [1] (read-out: DC50(nM) H1975 # 28 DTC; H1975 # 28 DTC cells; EGFR degradation, IC50 (DC50) from curve fit); 5.27 nM in assay [2] (read-out: DC50(nM) BaF3-LTC; BaF3-LTC cells; EGFR degradation, IC50 (DC50) from curve fit); 0.871 nM in assay [3] (read-out: BaF3 LC DC50; BaF3 LC, 16h treatment); 1.06 nM in assay [4] (read-out: H1975 #23 DC DC50, 16h treatment). The Dmax came to 86.5% in assay [2] (read-out: Dmax (%) BaF3-LTC, BaF3-LTC cells; maximum percentage of inhibition (degradation)) and 91.9% in assay [3] (BaF3, read-out: BaF3 LC Dmax (%)). Moreover, the “H1975 #23 DC Dmax (%)” value in assay [4] (16h treatment) amounted to 64.14%.

On to `CCOc1cc(N2CCC(N3CCN(CCc4cc(F)c(C5CCC(=O)NC5=O)c(F)c4)CC3)CC2)c(CC)cc1Nc1ncc(Br)c(Nc2ccc3nc(C)ccc3c2P(C)(C)=O)n1` (centres unmarked) [Example 482, 3-(4-(2-(4-(1-(4-((5-bromo-4-((5-(dimethylphosphoryl)-2-methylquinolin-6-yl)amino)pyrimidin-2-yl)amino)-5-ethoxy-2-ethylphenyl)piperidin-4-yl)piperazin-1-yl)ethyl)-2,6-difluorophenyl)piperidine-2,6-dione], for which the 50% degradation concentration (DC50) was found to be 1.86 nM in assay [1] (setting [5]), 12.9 nM in assay [2] (setting [7]), 50.8 nM in assay [3] (setting [10]) and 7.2 nM in assay [4] (setting [11]). In assay [1] (setting [6]), the “Dmax (%) H1975 # 28 DTC” value amounted to 69.65%. The results for the Dmax in assay [2] (setting [8]) and in assay [3] (setting [9]) were 88.7% and 73.4%, respectively. In addition, the “H1975 #23 DC Dmax (%)” value in assay [4] (16h treatment) turned out to be 70.91%.
